Laboratory results published in PubChem BioAssay (NCI).
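Five compound concentrations were applied to cells in 96-well plates for 48 hours; endpoints were derived by simple linear interpolation of the resulting dose-response curve. GI50 = concentration required for 50% inhibition of growth. TGI is the concentration that stops growth completely.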

What was measured:
Assay in all cases: NCI-60 cell line screen, 48 h
[1] = test system: EKVX NSCLC
[2] = test system: HCT-116 colon
[3] = test system: HCT-15 colon
[4] = test system: HT29 colon
[5] = test system: K-562 leukemia
[6] = test system: LOX IMVI melanoma
[7] = test system: MOLT-4 leukemia
[8] = test system: SK-MEL-5 melanoma
[9] = test system: SN12C renal
[10] = test system: T-47D breast

Row | SMILES | TGI [1] | TGI [2] | TGI [3] | TGI [4] | TGI [5] | TGI [6] | TGI [7] | TGI [8] | TGI [9] | GI50 [2] | GI50 [3] | GI50 [5] | GI50 [6] | GI50 [7] | GI50 [8] | GI50 [9] | GI50 [10] | TGI [10] | GI50 [1] | GI50 [4]
1 | NC(=S)N/N=C(\CCC(=O)Nc1ccccc1[N+](=O)[O-])CC(=O)c1ccco1 | > 100 µM | > 100 µM | > 100 µM | > 100 µM | > 100 µM | > 100 µM | > 100 µM | > 100 µM | > 100 µM |  |  |  |  |  |  |  |  |  |  | 
2 | NC(CO)c1ccc(OCc2ccccc2)cc1 (centres undefined) | > 100 µM | > 100 µM | > 100 µM | > 100 µM | > 100 µM | > 100 µM | > 100 µM | > 100 µM | > 100 µM |  |  |  |  |  |  |  |  |  |  | 
3 | O=c1[nH]c(F)nc2c1ncn2C1OC(CO)C(O)C1O (centres undefined) |  | > 100 µM | > 100 µM |  | > 100 µM | > 100 µM | > 100 µM | > 100 µM | > 100 µM | > 100 µM | > 100 µM | > 100 µM | > 100 µM | > 100 µM | > 100 µM | > 100 µM | > 100 µM | > 100 µM |  | 
4 | CCC1c2cc3n(c(=O)c2COC1O)Cc1c-3nc2ccccc2c1Cl (centres undefined) | > 100 µM | > 100 µM | > 100 µM | > 100 µM | > 100 µM | > 100 µM | > 73 µM | > 100 µM | > 100 µM |  |  |  |  |  |  |  |  |  |  | 
5 | Cc1cc2c(cc1C)[n+](=O)c(C(=O)CC(=O)C(=O)Nc1ccccc1C(C)C)c(C)n2[O-] | > 100 µM | > 100 µM | > 100 µM | > 100 µM | > 100 µM | > 100 µM | > 100 µM | > 100 µM | > 100 µM |  |  |  |  |  |  |  |  |  |  | 
6 | COc1cc(C2C(C(=O)O)=C(COC(C)=O)Oc3cc4c(cc32)OCO4)cc(OC)c1OC(C)=O (centres undefined) | > 100 µM | > 100 µM | > 100 µM | > 100 µM | > 100 µM | > 100 µM | > 100 µM | > 100 µM | > 100 µM |  |  |  |  |  |  |  |  |  |  | 
7 | O=C(O)CCC1CCc2cccc(OCC(=O)O)c2C1=O (centres undefined) | > 100 µM | > 100 µM | > 100 µM | > 100 µM | > 100 µM | > 100 µM | > 100 µM | > 100 µM | > 100 µM |  |  |  |  |  |  |  |  |  |  | 
8 | CCC(C)(C)[C@H](NC(=O)[C@H]1CCCCN1C)C(=O)N(C)[C@H](C[C@@H](OC(C)=O)c1nc(C(=O)N[C@@H](Cc2ccccc2)C[C@H](C)C(=O)O)cs1)C(C)C | > 16.7 µM | > 16.7 µM | > 16.7 µM | > 16.7 µM | > 16.7 µM | > 16.7 µM | > 16.7 µM | 0.00294 µM | > 16.7 µM | < 0.00167 µM | < 0.00167 µM | < 0.00167 µM | < 0.00167 µM | < 0.00167 µM | < 0.00167 µM | < 0.00167 µM |  |  | < 0.00167 µM | < 0.00167 µM
9 | O=c1c(O)cc2c(O)oc3c(=O)c(O)c(O)c4c(O)oc1c2c43 | > 100 µM | > 100 µM | > 100 µM | > 100 µM | 57.9 µM | 34.1 µM | 72.2 µM | > 100 µM | 36.5 µM |  |  |  |  |  |  |  |  |  |  | 
10 | CC(=O)OCC1OC([Se-])C(OC(C)=O)C(OC(C)=O)C1OC(C)=O.N#CCC[PH+](CCC#N)CCC#N.[Au+] (centres undefined) | 8.21 µM | > 50.2 µM | 23.4 µM | 39.7 µM | 28.3 µM | 28.9 µM | 14.1 µM | 15.9 µM | 31.9 µM | 3.85 µM | 3.92 µM | 3.55 µM | 4.34 µM | 2.75 µM | 3.43 µM | 6.33 µM |  |  | 3.12 µM | 4.73 µM
11 | O=C(Cc1ccccc1)N/N=C(/c1nc2ccc([N+](=O)[O-])cc2[nH]c1=O)C(O)c1ccccc1Cl (centres undefined) | > 100 µM | > 100 µM | > 100 µM | > 100 µM | > 100 µM | > 100 µM | > 100 µM | > 100 µM | > 100 µM |  |  |  |  |  |  |  |  |  |  | 
12 | C=C1C(=O)c2cc3c(cc2C(c2cc(OC)c(OC)c(OC)c2)[C@@H]1C(=O)O)OCO3 (some centres undefined) | > 100 µM | > 100 µM | > 100 µM | > 100 µM | > 100 µM | > 100 µM | > 100 µM | > 100 µM | > 100 µM |  |  |  |  |  |  |  |  |  |  | 
13 | Cc1ccc(NC(=O)/C(=N\NC(N)=S)C(C#N)c2ccccc2C)cc1C (centres undefined) | > 100 µM | > 100 µM | > 100 µM | > 100 µM | > 100 µM |  | > 100 µM | > 100 µM | > 100 µM |  |  |  |  |  |  |  |  |  |  | 
14 | CCc1cccc(CC)c1NC(=O)CC1SC(N)=NC1=O (centres undefined) | > 100 µM | > 100 µM | > 100 µM | > 100 µM | > 100 µM | > 100 µM | > 100 µM | > 100 µM | > 100 µM |  |  |  |  |  |  |  |  |  |  | 
15 | Cn1c2cc([N+](=O)[O-])ccc2c(=O)c2c(O)cc3c(c21)C=CC(C)(C)O3 | > 100 µM |  | > 100 µM | > 100 µM | > 100 µM | > 100 µM | > 100 µM | > 100 µM | > 100 µM |  |  |  |  |  |  |  |  |  |  | 
16 | O=C(N/C=C/C=C/Sc1ccccc1)OCc1ccccc1 | 53.6 µM | 38.1 µM | 36.2 µM | 31.9 µM | > 100 µM | 32 µM | > 100 µM | 31.6 µM | 31.6 µM |  |  |  |  |  |  |  |  |  |  | 
17 | C=C(COC(C)=O)CC(/C=C(\C)CC/C=C(\C)CO)OC(C)=O (centres undefined) | > 100 µM | > 100 µM | > 100 µM | > 100 µM | > 100 µM | > 100 µM | > 100 µM | > 100 µM | > 100 µM |  |  |  |  |  |  |  |  |  |  | 
18 | O=C([O-])CCc1ccccc1.O=C([O-])CCc1ccccc1.O=C([O-])CCc1ccccc1.O=C([O-])CCc1ccccc1.[Mo+2].[Mo+2] | > 100 µM | > 100 µM | > 100 µM | > 100 µM | > 100 µM | > 100 µM | > 100 µM | > 100 µM | > 100 µM | > 100 µM | > 100 µM | > 100 µM | > 100 µM | > 100 µM | > 100 µM | > 100 µM |  |  | > 100 µM | > 100 µM
